Measured values: patent publication US4051237A, “Glycopeptide antibiotics Bu-2231 A and B and process for producing same” (priority 1975, dated 1977)

Key:
T. asteroides = experiment: MIC by two-fold agar dilution; type: cell-based; conditions: Ta-1 T. asteroides; sabouraud agar; unit assumed
E. coli NIHJ [1] = experiment: In vivo activity in experimental mice infection
Protocol: The in vivo activity of Bu-2231 complex was evaluated in experimental mice infections against S. aureus Smith and E. coli NIHJ. Bleomycin was tested comparatively as a reference antibiotic.
The in vivo activty of the individual components of Bu-2231 in each of the copper-free and copper complex forms was also determined in E. coli infection.

C. neoformans IAM 4514 = experiment: MIC by two-fold agar dilution; type: cell-based; conditions: Cn-2 C. neoformans IAM 4514; sabouraud agar; unit assumed
Mycobacterium 607, D46 = experiment: MIC by two-fold agar dilution; type: cell-based; conditions: Medium #1001, unit assumed
S. aureus 209P, R4 = experiment: MIC by two-fold agar dilution; type: cell-based; conditions: Mueller-Hinton agar, unit assumed
Protocol: The minimum inhibitory concentrations (MIC) of Bu-2231 A and B were determined against a wide variety of bacteria and fungi by the two-fold agar dilution method. Mueller-Hinton agar medium was used for the determination of bacterial MIC's (gram-positive and gram-negative), Medium #1001 [Glycerol (3%). Na-glutamate (0.3%), peptone (0.2%), Na2 HPO4 (0.31%), KH2 PO4 (0.1%), ammonium citrate (0.005%), MgSO4.7H2 O (0.001%), agar (1.5%)] for acid-fast bacteria and sabouraud agar for fungi. The results are shown in Tables 9 and 10 comparatively with bleomycin and phleomycin. The antibacterial and antifungal activities of Bu-2231 A and B are much higher than those of the reference antibiotics.

P. stuartii A20734 = experiment: MIC by two-fold agar dilution; type: cell-based; conditions: Mueller-Hinton agar, unit assumed
[2] = test system: Mycobacterium ranae, ATCC110; experiment: MIC by two-fold agar dilution; type: cell-based; conditions: Medium #1001, unit assumed
K. pneumoniae A9678 = experiment: MIC by two-fold agar dilution; type: cell-based; conditions: Mueller-Hinton agar, unit assumed
S. marcescens A20460 = experiment: MIC by two-fold agar dilution; type: cell-based; conditions: Mueller-Hinton agar, unit assumed
C. neoformans (Cn-1) = experiment: MIC by two-fold agar dilution; type: cell-based; conditions: Cn-1 C. neoformans; sabouraud agar; unit assumed
P. aeruginosa A20741 = experiment: MIC by two-fold agar dilution; type: cell-based; conditions: Mueller-Hinton agar, unit assumed
S. marcescens A21235 = experiment: MIC by two-fold agar dilution; type: cell-based; conditions: Mueller-Hinton agar, unit assumed
S. aureus Smith A9537 = experiment: MIC by two-fold agar dilution; type: cell-based; conditions: Mueller-Hinton agar, unit assumed
K. pneumoniae A20328 = experiment: MIC by two-fold agar dilution; type: cell-based; conditions: Mueller-Hinton agar, unit assumed
E. coli A20665 = experiment: MIC by two-fold agar dilution; type: cell-based; conditions: Mueller-Hinton agar, unit assumed
Mycobacterium 607, D87 = experiment: MIC by two-fold agar dilution; type: cell-based; conditions: Medium #1001, unit assumed
P. vulgaris A9436 = experiment: MIC by two-fold agar dilution; type: cell-based; conditions: Mueller-Hinton agar, unit assumed
P. aeruginosa A9930 = experiment: MIC by two-fold agar dilution; type: cell-based; conditions: Mueller-Hinton agar, unit assumed
B. sphaericus #122 = experiment: MIC by two-fold agar dilution; type: cell-based; conditions: Mueller-Hinton agar, unit assumed
P. aeruginosa A 9923 = experiment: MIC by two-fold agar dilution; type: cell-based; conditions: Mueller-Hinton agar, unit assumed
C. krusei IAM 4489 = experiment: MIC by two-fold agar dilution; type: cell-based; conditions: Ck-1 C. krusei IAM 4489; sabouraud agar; unit assumed
Sporotrichum sp. = experiment: MIC by two-fold agar dilution; type: cell-based; conditions: Sy-1 Sporotrichum sp.; sabouraud agar; unit assumed
S. cerevisiae IAM 4009 = experiment: MIC by two-fold agar dilution; type: cell-based; conditions: Sc-2 S. cerevisiae IAM 4009; sabouraud agar; unit assumed
E. coli NIHJ [3] = experiment: MIC by two-fold agar dilution; type: cell-based; conditions: Mueller-Hinton agar, unit assumed
B. subtilis PCI-219 = experiment: MIC by two-fold agar dilution; type: cell-based; conditions: Mueller-Hinton agar, unit assumed
P. stuartii A20894 = experiment: MIC by two-fold agar dilution; type: cell-based; conditions: Mueller-Hinton agar, unit assumed
P. rettgeri A15167 = experiment: MIC by two-fold agar dilution; type: cell-based; conditions: Mueller-Hinton agar, unit assumed
C. albicans IAM 4888 = experiment: MIC by two-fold agar dilution; type: cell-based; conditions: Ca-1 C. albicans IAM 4888; sabouraud agar; unit assumed
Mycobacterium phlei, D88 = experiment: MIC by two-fold agar dilution; type: cell-based; conditions: Medium #1001, unit assumed
K. pneumoniae D11 = experiment: MIC by two-fold agar dilution; type: cell-based; conditions: Mueller-Hinton agar, unit assumed
A. niger var Tieghem = experiment: MIC by two-fold agar dilution; type: cell-based; conditions: An-1 A. niger var Tieghem; sabouraud agar; unit assumed
P morganii A9553 = experiment: MIC by two-fold agar dilution; type: cell-based; conditions: Mueller-Hinton agar, unit assumed
P. aeruginosa H9, D113 = experiment: MIC by two-fold agar dilution; type: cell-based; conditions: Mueller-Hinton agar, unit assumed
B. mycoides "0" = type: cell-based; conditions: Mueller-Hinton agar, unit assumed
C. tropicalis IAM 4157 = experiment: MIC by two-fold agar dilution; type: cell-based; conditions: Ct-1 C. tropicalis IAM 4157; sabouraud agar; unit assumed
S. aureus A20239 = experiment: MIC by two-fold agar dilution; type: cell-based; conditions: Mueller-Hinton agar, unit assumed
S. lutea PCI-1001 = experiment: MIC by two-fold agar dilution; type: cell-based; conditions: Mueller-Hinton agar, unit assumed
[4] = test system: C. albicans #520 Yale A9540; experiment: MIC by two-fold agar dilution; type: cell-based; conditions: Ca-4 C. albicans #520 Yale A9540; sabouraud agar; unit assumed
P. mirabilis A9554 = experiment: MIC by two-fold agar dilution; type: cell-based; conditions: Mueller-Hinton agar, unit assumed
T. rubrum D-55 = experiment: MIC by two-fold agar dilution; type: cell-based; conditions: Tr-1 T. rubrum D-55; sabouraud agar; unit assumed

Cc1c(N)nc([C@H](CC(N)=O)NC[C@H](N)C(N)=O)nc1C(=O)N[C@H](C(=O)N[C@H](C)[C@@H](O)CC(=O)N[C@H](C(=O)NC(O[C@@H]1O[C@@H](C)[C@@H](N)[C@@H](O)[C@H]1O)C(O)c1nc(-c2nc(C(=O)NCCCC(N)CC(=O)NCCCNCCCCN)cs2)cs1)[C@@H](C)O)[C@H](O[C@@H]1O[C@@H](CO)[C@@H](O)[C@H](O)[C@@H]1O[C@H]1O[C@H](CO)[C@@H](O)[C@H](OC(N)=O)[C@@H]1O)c1c[nH]cn1 (stereo partly shown) [Bu-2231 A Cu-free]
0.4 µg/mL: MIC (C. neoformans IAM 4514) | MIC (S. aureus 209P, R4) | MIC (P. stuartii A20734) | MIC (S. marcescens A20460) | MIC (C. neoformans (Cn-1)) | MIC (P. aeruginosa A9930) | MIC (S. cerevisiae IAM 4009) | MIC (P. stuartii A20894) | MIC (P. rettgeri A15167) | MIC (P morganii A9553)
50 µg/mL: MIC (P. aeruginosa A 9923)
0.8 µg/mL: MIC (K. pneumoniae A20328) | MIC (C. krusei IAM 4489) | MIC (C. albicans IAM 4888) | MIC (C. tropicalis IAM 4157)
> 100 µg/mL: MIC (P. aeruginosa H9, D113)
1/5: In vivo activity vs. E. coli NIHJ infection (x/5 mice) (E. coli NIHJ [1]; Table 12, dose (sc) 0.008)
5/5: In vivo activity vs. E. coli NIHJ infection (x/5 mice) (E. coli NIHJ [1]; Table 12, dose (sc) 0.13) | In vivo activity vs. E. coli NIHJ infection (x/5 mice) (E. coli NIHJ [1]; Table 12, dose (sc) 0.5) | In vivo activity vs. E. coli NIHJ infection (x/5 mice) (E. coli NIHJ [1]; Table 12, dose (sc) 2)
0.024 mg/kg: PD50 (E. coli NIHJ [1]; Table 12, E. coli NIHJ infection, mice, sc)
0.2 µg/mL: MIC (K. pneumoniae A9678) | MIC (P. aeruginosa A20741) | MIC (S. marcescens A21235) | MIC (Mycobacterium 607, D87) | MIC (P. vulgaris A9436) | MIC (A. niger var Tieghem) | MIC (B. mycoides "0") | MIC (S. aureus A20239) | MIC (S. lutea PCI-1001)
3.1 µg/mL: MIC (T. asteroides) | MIC (Sporotrichum sp.) | MIC [4] | MIC (T. rubrum D-55)
3/5: In vivo activity vs. E. coli NIHJ infection (x/5 mice) (E. coli NIHJ [1]; Table 12, dose (sc) 0.03)
< 0.0063 µg/mL: MIC (B. sphaericus #122) | MIC (B. subtilis PCI-219) | MIC (K. pneumoniae D11)
0.025 µg/mL: MIC (E. coli NIHJ [3])
0.1 µg/mL: MIC (Mycobacterium 607, D46) | MIC [2] | MIC (S. aureus Smith A9537) | MIC (P. mirabilis A9554)
0.05 µg/mL: MIC (E. coli A20665) | MIC (Mycobacterium phlei, D88)

Bleomycin [reference compound]
5/5: In vivo activity, E. coli NIHJ infection (x/5 mice) (E. coli NIHJ [1]; Table 11 second part, dose (sc) 8 mg/kg)
12.5 µg/mL: MIC (P. aeruginosa A20741) | MIC (C. krusei IAM 4489) | MIC (C. albicans IAM 4888) | MIC (B. mycoides "0") | MIC (C. tropicalis IAM 4157) | MIC (S. aureus A20239)
0.8 µg/mL: MIC [2] | MIC (Mycobacterium 607, D87) | MIC (E. coli NIHJ [3])
2.55 mg/kg: PD50 (median protective dose) (E. coli NIHJ [1]; Table 11 second part, E. coli NIHJ infection, mice, sc)
0.2 µg/mL: MIC (Mycobacterium 607, D46) | MIC (E. coli A20665) | MIC (Mycobacterium phlei, D88) | MIC (K. pneumoniae D11)
3.1 µg/mL: MIC (S. aureus Smith A9537) | MIC (P. stuartii A20894)
0/5: In vivo activity, E. coli NIHJ infection (x/5 mice) (E. coli NIHJ [1]; Table 11 second part, dose (sc) 0.13 mg/kg)
1/5: In vivo activity, E. coli NIHJ infection (x/5 mice) (E. coli NIHJ [1]; Table 11 second part, dose (sc) 0.5 mg/kg) | In vivo activity, E. coli NIHJ infection (x/5 mice) (E. coli NIHJ [1]; Table 11 second part, dose (sc) 2 mg/kg)
> 100 µg/mL: MIC (T. asteroides) | MIC (P. stuartii A20734) | MIC (S. marcescens A20460) | MIC (P. aeruginosa A9930) | MIC (P. aeruginosa A 9923) | MIC (Sporotrichum sp.) | MIC (P. rettgeri A15167) | MIC (P morganii A9553) | MIC (P. aeruginosa H9, D113) | MIC [4] | MIC (T. rubrum D-55)
6.3 µg/mL: MIC (K. pneumoniae A9678) | MIC (P. vulgaris A9436) | MIC (B. sphaericus #122)
< 0.0063 µg/mL: MIC (B. subtilis PCI-219)
100 µg/mL: MIC (S. marcescens A21235) | MIC (S. lutea PCI-1001)
50 µg/mL: MIC (P. mirabilis A9554)
0.4 µg/mL: MIC (S. cerevisiae IAM 4009) | MIC (A. niger var Tieghem)
1.6 µg/mL: MIC (C. neoformans IAM 4514) | MIC (C. neoformans (Cn-1))
25 µg/mL: MIC (K. pneumoniae A20328)

Phleomycin [reference compound]
1.6 µg/mL: MIC (P. stuartii A20734) | MIC (P. mirabilis A9554)
0.1 µg/mL: MIC (S. aureus Smith A9537) | MIC (Mycobacterium phlei, D88)
> 100 µg/mL: MIC (K. pneumoniae A20328) | MIC (P. aeruginosa A 9923) | MIC (P. aeruginosa H9, D113)
0.4 µg/mL: MIC (C. neoformans IAM 4514) | MIC (S. aureus 209P, R4) | MIC [2] | MIC (C. neoformans (Cn-1)) | MIC (E. coli A20665) | MIC (Mycobacterium 607, D87) | MIC (B. sphaericus #122) | MIC (K. pneumoniae D11) | MIC (A. niger var Tieghem) | MIC (S. aureus A20239) | MIC (S. lutea PCI-1001)
0.8 µg/mL: MIC (S. marcescens A20460) | MIC (S. marcescens A21235) | MIC (P. vulgaris A9436) | MIC (C. krusei IAM 4489) | MIC (S. cerevisiae IAM 4009) | MIC (E. coli NIHJ [3]) | MIC (P. stuartii A20894)
3.1 µg/mL: MIC (P. aeruginosa A9930) | MIC (P. rettgeri A15167) | MIC (C. albicans IAM 4888) | MIC (C. tropicalis IAM 4157) | MIC (T. rubrum D-55)
12.5 µg/mL: MIC (K. pneumoniae A9678) | MIC (Sporotrichum sp.)
0.2 µg/mL: MIC (Mycobacterium 607, D46) | MIC (B. mycoides "0")
< 0.0063 µg/mL: MIC (B. subtilis PCI-219)
6.3 µg/mL: MIC (T. asteroides) | MIC (P. aeruginosa A20741) | MIC (P morganii A9553) | MIC [4]
